Results published in patent publication EP0679081B1, “PHARMACEUTICAL COMPOSITIONS FOR PREVENTION AND TREATMENT OF CANCEROUS DISEASE AND PROCESS FOR THEIR PREPARATION” (priority 1993, dated 1995).

Tested on: Sp2/0-Ag14 mouse myeloma cells
Experiment: Effect on number of viable Sp2/0-Ag14 cells in culture (trypan blue dye exclusion count)
Conditions: for number of cells as compared to the number of untreated cells: substance used alone, statement in words
Procedure: In the experiments the newest methods approved by the scientific literature were used. In case of Sp2/0-Ag14 and K562 lines, the logarithmically growing cells were harvested from the medium and resuspended in a 96-well plate used for cell culture to a final concentration of 4x10^4 Sp2/0-Ag14 cells and 2x10^4 K562 cells, respectively, in 250 µl appropriate medium per well containing the tested materials in the indicated concentrations. In case of HeLa, HEp-2 and Vero cells, the cultured cells were harvested from 75 % confluent tissue culture flasks with 0.2 % trypsin and resuspended in the appropriate medium at a density of 10^5 cells/ml. Aliquots (100 µl) were dispensed into 96-well micro plates and incubated for 24 hours. Then the medium was discarded and replaced with 250 µl fresh medium containing the tested compounds in the indicated concentrations. All kinds of cells were allowed to proliferate for 48 hours. The number of viable Sp2/0-Ag14 and K562 cells was then counted microscopically with the trypan blue dye exclusion method. The survival of HeLa, HEp-2 and Vero cells was measured by assessing the endogenous alkaline phosphatase activity of the cells. Results were evaluated using Student's t-test. Data after the mean values in the Tables and signs in the Figures mean: "standard error of mean" (SEM).
In case of L-tryptophan for example the 2-4th control experiments show the effects of 0.002; 0.006; and 0.01 % by mass, resp., of L-tryptophan alone on the number of cells.
In Table 2 the amounts of materials expressed in % by mass and multiplied by 1000 are shown, thus the numbers in the Table should read by multiplying with 10^-3; for example in Example 21 in case of L-tryptophan the number 6 means 6 x 10^-3, that is 0.006 % by mass. The conditions of the experiments were the same as before.
To help the comparability with the earlier results Sp2/0-Ag14 cells were also used and the experimental conditions were the same as before. On the vertical axis the changes of the amounts of cells expressed in the percentage of the amounts of untreated cells are shown. On the horizontal axis the changes expressed in % of the compositions (changes of the amounts of the active ingredients) are shown. […] Thus, the 80 % composition of Example 99 contains every component in an amount of 80 %.
The composition of the control mixtures was given in connection with Table 1.
As a function of time the effect of the 100 % composition of Example 103 on Sp2/0-Ag14 cells was investigated and compared to the 100 % control mixture and to untreated cells. The experimental conditions were the same as in the previous experiments except that in this case the cells were counted not only after 48 hr but also after 6; 12; 24; and 36 hr. On the vertical axis the cell number/ml is shown. On the horizontal axis the time is shown in hours.

[1] = Table 1, number of cells after 48 hr incubation, mean ± SEM, untreated cells 59.1 ±3.2
[2] = Table 2 (first part), number of cells after 48 hr, mean ± SEM, untreated cells 74.3 ± 3.9
[3] = Table 2 (second part), number of cells after 48 hr, mean ± SEM, untreated cells 74.3 ± 3.9
[4] = Table 2 (first part), 48 hr, untreated cells = 100 %, mean ± SEM

Row | SMILES | CHANGE OF THE NUMBER OF CELLS (x 10^4) [1] | IN% OF THE UNTREATED CELLS (mouse, sp2/0-ag14 cells, 48 h) | IN % OF THE UN-TREATED CELLS (mouse, sp2/0-ag14 cells, 48 h) | also measured
1 | O=CC[C@H](O)[C@H](O)CO [Control 8, 2-deoxy-D-ribose] | 59.0 ±3.2 x 10^4 | 99.9 ±5.9% |  | 
2 | N[C@@H](Cc1c[nH]c2ccccc12)C(=O)O [Control 2, L-tryptophan] | 61.7±3.0 x 10^4 | 104.4±5.0% |  | 
3 | CSCC[C@H](N)C(=O)O [Control 27, L-methionine] |  |  | 98.7 ± 3.6% | CHANGE OF THE NUMBER OF CELLS (x 10^4) [2]: 73.3 ± 2.7 x 10^4
4 | Cc1cc2nc3c(=O)[nH]c(=O)nc-3n(C[C@H](O)[C@H](O)[C@H](O)CO)c2cc1C [Control 29, riboflavin] |  |  | 103.5 ± 2.2% | CHANGE OF THE NUMBER OF CELLS (x 10^4) [2]: 76.9 ± 1.7 x 10^4; number of cells as compared to the number of untreated cells (48 hr): slightly increased
5 | O=C[C@@H](O)[C@@H](O)[C@H](O)[C@H](O)CO [Control 30, D-mannose] |  |  | 98.4 ± 1.5% | CHANGE OF THE NUMBER OF CELLS (x 10^4) [3]: 73.1 ± 1.1 x 10^4
6 | N[C@@H](Cc1c[nH]c2ccccc12)C(=O)O [L-tryptophan] |  |  |  | number of cells as compared to the number of untreated cells (48 hr): increased slightly
7 | O=C1O[C@H]([C@@H](O)CO)C(O)=C1O [Control 20, L-ascorbic acid] | 56.3 ±2.6 x 10^4 | 95.2 ±4.8% |  | 
8 | Cc1cc2nc3c(=O)[nH]c(=O)nc-3n(C[C@H](O)[C@H](O)[C@H](O)COP(=O)(O)O)c2cc1C [Control 32, riboflavin-5'-phosphate] |  |  | 98.9 ± 1.8% | CHANGE OF THE NUMBER OF CELLS (x 10^4) [3]: 73.5 ± 1.3 x 10^4
9 | O=CC[C@H](O)[C@H](O)CO [Control 6, 2-deoxy-D-ribose] | 59.3±2.3 x 10^4 |  |  | 
10 | O=C1O[C@H]([C@@H](O)CO)C(O)=C1O [Control 19, L-ascorbic acid] | 56.7±2.1 x 10^4 | 96.0±3.7% |  | 
11 | O=C(O)CCCC[C@@H]1SC[C@@H]2NC(=O)N[C@@H]21 [Control 25, d-biotin] |  |  | 99.9 ± 3.1% | CHANGE OF THE NUMBER OF CELLS (x 10^4) [2]: 74.2 ± 2.3 x 10^4
12 | N=C(N)NCCC[C@H](N)C(=O)O [Control 23, L-arginine] |  |  |  | IN % OF THE UN-TREATED CELLS [4]: 103.4 ± 1.8%; CHANGE OF THE NUMBER OF CELLS (x 10^4) [2]: 76.8 ± 1.3 x 10^4; number of cells as compared to the number of untreated cells (48 hr): slightly increased
13 | O=C(O)CC(O)C(=O)O (stereo not shown) [Control 16, malic acid] | 58.8±2.5 x 10^4 | 99.5±4.5% |  | 
14 | N[C@@H](Cc1c[nH]c2ccccc12)C(=O)O [Control 3, L-tryptophan] | 62.6±2.0 x 10^4 | 106.0±3.4% |  | 
15 | Nc1ncnc2nc[nH]c12 [Control 12, adenine] | 58.6 ± 1.5 x 10^4 | 99.1 ± 2.8% |  | 
16 | O=C1O[C@H]([C@@H](O)CO)C(O)=C1O [Control 18, L-ascorbic acid] | 58.2±1.4 x 10^4 | 98.5 ±2.5% |  | 
17 | Cc1ncc(CO)c(CO)c1O [Control 26, pyridoxine] |  |  | 91.0 ± 2.1% | CHANGE OF THE NUMBER OF CELLS (x 10^4) [2]: 67.6 ± 1.6 x 10^4
18 | Nc1ncnc2nc[nH]c12 [Control 11, adenine] | 58.2 ±1.8 x 10^4 | 98.5 ±3.2% |  | 
19 | O=C(O)c1cc(=O)[nH]c(=O)[nH]1 [Control 33, orotic acid] |  |  | 94.2 ± 1.7% | CHANGE OF THE NUMBER OF CELLS (x 10^4) [3]: 70.0 ± 1.3 x 10^4
20 | O=C(O)CNC(=O)c1ccccc1 [Control 31, N-benzoylglycine] |  |  | 99.8 ± 2.1% | CHANGE OF THE NUMBER OF CELLS (x 10^4) [3]: 74.2 ± 1.6 x 10^4
21 | N[C@@H](Cc1ccccc1)C(=O)O [Control 22, L-phenylalanine] |  |  |  | IN % OF THE UN-TREATED CELLS [4]: 109.4 ± 4.0%; CHANGE OF THE NUMBER OF CELLS (x 10^4) [2]: 81.3 ± 3.0 x 10^4; number of cells as compared to the number of untreated cells (48 hr): slightly increased
22 | N[C@@H](Cc1ccc(O)cc1)C(=O)O [Control 28, L-tyrosine] |  |  |  | IN % OF THE UN-TREATED CELLS [4]: 94.9 ± 1.5%; CHANGE OF THE NUMBER OF CELLS (x 10^4) [2]: 70.5 ± 1.1 x 10^4
23 | N[C@@H](Cc1c[nH]cn1)C(=O)O [Control 24, L-histidine] |  |  | 108.7 ± 2.7% | CHANGE OF THE NUMBER OF CELLS (x 10^4) [2]: 80.7 ± 2.0 x 10^4; number of cells as compared to the number of untreated cells (48 hr): slightly increased
24 | O=CC[C@H](O)[C@H](O)CO [Control 7, 2-deoxy-D-ribose] | 59.8±1.2 x 10^4 | 101.1±2.2% |  | 
25 | O=C(O)CC(O)C(=O)O (stereo not shown) [Control 15, malic acid] | 60.4 ± 1.7 x 10^4 | 102.2 ± 3.0% |  | 
26 | Nc1ncnc2nc[nH]c12 [Control 10, adenine] | 60.5±1.4 x 10^4 | 102.4±2.5% |  | 
27 | O=C(O)CC(O)C(=O)O (stereo not shown) [Control 14, malic acid] | 58.7 ± 2.1 x 10^4 | 99.3±3.7% |  | 
28 | N[C@@H](Cc1c[nH]c2ccccc12)C(=O)O [Control 4, L-tryptophan] | 63.0±3.4 x 10^4 | 106.6±5.8% |  | 
